Experiments:
[1] = system: NCM460 normal colon cells; assay: Sulforhodamine B (SRB) cell growth assay in NCM460 normal colon cells; format: cell-based, human
Experimental: HT-29, a cell line derived from colorectal adenocarcinoma (ATCC, HTB 38), grows in McCoy's 5A medium (Biowhittaker, Inc. Walkersville, Md.). NCM460, a cell line derived from a normal human colon (InCell Corp. San Antonio, Tex.), grows in M3 Base media (InCell Corp. San Antonio, Tex.).
Both cell lines are kept at 37° C. and 5% CO2 atmosphere. Both media are supplemented with 10% fetal bovine serum (FBS, Biowhittaker, Inc. Walkersville, Md.).
Cells are fixed in situ by the gentle addition of 50 μl of cold 50% (w/v) TCA (final concentration, 10% TCA) and incubated for 60 minutes at 4° C. The supernatant is discarded, and the plates are washed five times with tap water and air dried. Sulforhodamine B (SRB) solution (100 μl) at 0.4% (w/v) in 1% acetic acid is added to each well, and plates are incubated for 10 minutes at room temperature. After staining, unbound dye is removed by washing five times with 1% acetic acid and the plates are air dried. Bound stain is subsequently solubilized with 100 μl 10 mM trizma base for 5 minutes, and the absorbance at wavelength of 490 nm was spectrophotometrically measured using a microplate reader Elx800 (Bio-Tek instruments, Inc.).
Cells were seeded in 96-well cluster tissue culture plates (Costar), containing 100 μl complete growth medium per well at densities of 5,000 cells per well. Incubated at 37° C. in a humidified tissue culture incubator. After 24 Hour, 100 μl complete medium containing 5 half-log dilutions of the 5FU from 2*10^−4 to 2*10^−6 M was added into each well (final concentrations are from 10^−4 to 10^−6 M). Six replicates were used for each concentration. Media containing 0.125% DMSO was used as control. After 48 hours of incubation with 5FU in medium, cell proliferation was assessed using the SRB assay.
Percentage growth (Growth%) is calculated as: [(Ti−Tz)/(C−Tz)]×100 [absorbance measurements at time zero (Tz), control growth (C), and test growth in the presence of drug at the different concentration levels (Ti)].
Growth inhibition of 50% (GI50) is calculated from [(Ti−Tz)/(C−Tz)]×100=50, which is the drug concentration resulting in a 50% reduction in the net protein increase (as measured by SRB staining) in control cells during the drug incubation.
Similar method as Experiment 1 was used, except cells were exposed to 5FU at concentration ranging from 10^−4.5 to 10^−7 M. Media containing 0.01% DMSO was used as control. Lower concentrations were used since it was observed that 0.1% DMSO inhibited the growth of NCM460 cells. The experiment was repeated 5 times.
The protocol was the same as Experiment 3, except cells were exposed to 5FU at concentration ranging from 10^−5 to 10^−7 M with chokeberry ARE at concentration of 5, 15.6, 50 μg monomeric anthocyanin/ml growth media. […] Differences in response are most evident at the 5 FU concentration of 10^−6 M and ARE concentration of 15.6 μg monomeric anthocyanin/ml. In normal cells, there is no difference in the percent growth by 5FU with or without ARE, whereas in colon cancer cells, growth with 5FU alone was 80% of control, and further reduced to 40% with ARE and 5 FU.

[2] = rats, 72 hours after 200 mg/kg 5FU i.p., AIN93 diet with or without 4 g anthocyanin/kg

From the text for male Sprague Dawley rats: The purpose of this experiment was to determine if the toxicity of 5FU would be decreased by feeding rats a diet supplemented with anthocyanin-rich extract (ARE) prior to and during 5FU treatment.
Rats were randomly allocated in two diet groups and maintained for two weeks on either AIN93 or AIN93 plus 4 g anthocyanin/kg (Table 7).
Seventy-two hours after the 5FU injections, rats were euthanized by CO2 inhalation. Blood was collected by heart puncture into heparinized tubes, the stomach and entire intestines were removed and stomach, duodenum, jejunum, ileum, cecum and colon sections were fixed in formalin for histopathological evaluation. In addition to the gastrointestinal tract, the following organs were also collected at necropsy for histopathological evaluation: heart, liver, kidney, spleen and bone marrow. These tissues were also fixed in formalin. All tissues were then routinely processed and stained with H&E for pathological evaluation.

O=c1[nH]cc(F)c(=O)[nH]1 [5FU, 5-fluorouracil]
Growth % ([1]; 5FU 1.0E−4.5 M, experiment 1): 45.13% | OD ([1]; 5FU 1.0E−4.5 M, experiment 1): 0.264 | Growth % ([1]; 5FU 1.0E−4.5 M, experiment 2): 33.85% | OD ([1]; 5FU 1.0E−4.5 M, experiment 2): 0.242 | Growth % ([1]; 5FU 1.0E−4.5 M, experiment 3): 36.70% | OD ([1]; 5FU 1.0E−4.5 M, experiment 3): 0.256 | Growth % ([1]; 5FU 1.0E−5 M, experiment 1): 53.85% | OD ([1]; 5FU 1.0E−5 M, experiment 1): 0.281 | Growth % ([1]; 5FU 1.0E−5 M, experiment 2): 48.21% | OD ([1]; 5FU 1.0E−5 M, experiment 2): 0.27 | Growth % ([1]; 5FU 1.0E−5 M, experiment 3): 45.41% | OD ([1]; 5FU 1.0E−5 M, experiment 3): 0.275 | Growth % ([1]; 5FU 1.0E−5 M, experiment 4): 57.58% | OD ([1]; 5FU 1.0E−5 M, experiment 4): 0.285 | Growth % ([1]; 5FU 1.0E−5 M, experiment 5): 51.41% | OD ([1]; 5FU 1.0E−5 M, experiment 5): 0.279 | Growth % ([1]; 5FU 1.0E−5.5 M, experiment 1): 55.38% | OD ([1]; 5FU 1.0E−5.5 M, experiment 1): 0.284 | Growth % ([1]; 5FU 1.0E−5.5 M, experiment 2): 67.69% | OD ([1]; 5FU 1.0E−5.5 M, experiment 2): 0.308 | Growth % ([1]; 5FU 1.0E−5.5 M, experiment 3): 60.55% | OD ([1]; 5FU 1.0E−5.5 M, experiment 3): 0.308 | Growth % ([1]; 5FU 1.0E−5.5 M, experiment 4): 75.38% | OD ([1]; 5FU 1.0E−5.5 M, experiment 4): 0.332 | Growth % ([1]; 5FU 1.0E−5.5 M, experiment 5): 72.54% | OD ([1]; 5FU 1.0E−5.5 M, experiment 5): 0.339 | Growth % ([1]; 5FU 1.0E−6 M, experiment 1): 56.41% | OD ([1]; 5FU 1.0E−6 M, experiment 1): 0.286 | Growth % ([1]; 5FU 1.0E−6 M, experiment 2): 63.08% | OD ([1]; 5FU 1.0E−6 M, experiment 2): 0.299 | Growth % ([1]; 5FU 1.0E−6 M, experiment 3): 66.06% | OD ([1]; 5FU 1.0E−6 M, experiment 3): 0.32 | Growth % ([1]; 5FU 1.0E−6 M, experiment 4): 93.56% | OD ([1]; 5FU 1.0E−6 M, experiment 4): 0.38 | Growth % ([1]; 5FU 1.0E−6 M, experiment 5): 87.32% | OD ([1]; 5FU 1.0E−6 M, experiment 5): 0.381 | Growth % ([1]; 5FU 1.0E−6.5 M, experiment 1): 59.49% | OD ([1]; 5FU 1.0E−6.5 M, experiment 1): 0.292 | Growth % ([1]; 5FU 1.0E−6.5 M, experiment 2): 83.59% | OD ([1]; 5FU 1.0E−6.5 M, experiment 2): 0.339 | Growth % ([1]; 5FU 1.0E−6.5 M, experiment 3): 78.44% | OD ([1]; 5FU 1.0E−6.5 M, experiment 3): 0.347 | Growth % ([1]; 5FU 1.0E−6.5 M, experiment 4): 97.35% | OD ([1]; 5FU 1.0E−6.5 M, experiment 4): 0.39 | Growth % ([1]; 5FU 1.0E−6.5 M, experiment 5): 92.61% | OD ([1]; 5FU 1.0E−6.5 M, experiment 5): 0.396 | Growth % ([1]; 5FU 1.0E−7 M, experiment 4): 99.62% | OD ([1]; 5FU 1.0E−7 M, experiment 4): 0.396 | Growth % ([1]; 5FU 1.0E−7 M, experiment 5): 89.79% | OD ([1]; 5FU 1.0E−7 M, experiment 5): 0.388 | clinical signs in preliminary experiment (male Sprague Dawley rats; 2 rats, 5FU 200 mg/kg): caused weight loss and diarrhea | bone marrow histopathology (male Sprague Dawley rats; [2]): panmyelophthisis of the bone marrow with congestion | kidney histopathology (male Sprague Dawley rats; [2]): acute toxic nephropathy of the proximal convoluted tubules was present in all 5FU treated animals in mild to moderate severity | small intestine histopathology (male Sprague Dawley rats; [2]): intestinal villi were moderately to severely denuded | overall histopathological changes in tissues (male Sprague Dawley rats; rats, 5FU 200 mg/kg i.p. or AIN93 plus 4 g anthocyanin/kg diet with saline): significant acute toxicological changes
